Experimental data reported in US20230309565A1 (priority 2022, published 2023).
≈ marks a conversion by molar mass, not a printed value.

Columns and labels:
[1] = tested on: Liberibacter crescens BT-1; test: microbe, parasite or virus in culture; format: cell-based; settings: for inhibition of growth of L. crescens BT1: BM7 medium, 28° C.
[2] = format: physicochemical; settings: room temperature; 40-h culture of 0617-T307 in YME media
CsPR2 = format: in vivo, citrus; settings: foliar spray 10 ppm and 20 ppm; midribs at 0d, 2d, 2w; relative to CsUbi
[3] = tested on: Candidatus Liberibacter asiaticus (CLas); format: in vivo, Duncan grapefruit
CsPR1 = format: in vivo, citrus; settings: foliar spray 10 ppm and 20 ppm; midribs at 0d, 2d, 2w; relative to CsUbi
[4] = methanol and chloroform

| Compound | inhibition of growth of L. crescens ([1]; 1 mg/L) | inhibition of growth of L. crescens ([1]; 2.5 mg/L, 16 days) | inhibition of growth of L. crescens BT1 ([1]; 10 mg/L) | inhibition of growth of L. crescens BT1 ([1]; 20 mg/L) | inhibition of growth of L. crescens BT1 ([1]; 40 mg/L) | MIC ([1]; Liberibacter crescens, BT1, read-out: minimal inhibitory concentration (MIC)) [µg/mL] | present and stable in the culture [2] | expression of CsPR2 (CsPR2) | suppression of CLas ([3]; 10 mg/L sprayed on leaves of citrus Huanglongbing positive trees) | CLas titer in citrus leaves ([3]; RAA 10 mg/L foliar spray, HLB-positive Duncan grapefruit, untreated control 7.4×10^5) | expression of CsPR1 (CsPR1) | solubility [4] |
| --- | --- | --- | --- | --- | --- | --- | --- | --- | --- | --- | --- | --- |
| CSC1=C(C)C(=O)C(=O)NC1=O [RejuAgro A] | partial inhibition of growth | inhibition of growth | inhibition of growth | inhibition of growth | inhibition of growth | 2.5 (≈ 13.5 µM) | at least 4 weeks | triggered the expressions | effectively suppress | 2.4×10^5 genome equivalent/g tissue DNA | triggered the expressions | can be dissolved in methanol and chloroform |
| [H]/N=C(/N)N[C@H]1[C@H](O)[C@@H](O)[C@H](O[C@@H]2O[C@@H](C)[C@](O)(C=O)[C@H]2O[C@@H]2O[C@@H](CO)[C@H](O)[C@@H](O)[C@@H]2NC)[C@@H](N/C(N)=N\[H])[C@@H]1O [streptomycin, reference compound] | – | comparable | – | – | – | – | – | – | – | – | – | – |
